{
  "source": "patent US11219614B2",
  "about": "“Combination cancer therapy with pentaaza macrocyclic ring complex and ascorbate compound” (Galera Labs, LLC, priority 2016, dated 2022)",
  "key": {"[1]": {"system": "Non-small cell lung cancer cells (H1299)", "assay": "clonogenic cell survival assay, H1299", "type": "cell-based", "method": "(§1) FIG. 1 is a plot showing the surviving fraction of H1299 cells for increasing amounts of ascorbate, as determined by a clonogenic cell survival assay used to determine the effects of the compound alone and in combination with a pentaaza macrocyclic ring complex (GC4419). Non-small cell lung cancer cells (H1299) were exponentially grown in culture for 48 hours. The cells were then treated with 5-20 μM GC4419 for 24 hours and ascorbate (Asc) for one hour, followed immediately by clonogenic assay. The cells were trypsinized, counted, replated at varying lower densities and incubated. Plates were stained and counted for clonogenic survival assays.\nas §1, with “FIG. 10” for “FIG. 1”, “with either the” for “with a”, “complex (GC4419) or the pentaaza macrocyclic ring complex (GC4401).” for “complex (GC4419).”, “with ascorbate (Asc) at the concentrations shown for one hour and either 10” for “with 5-20”, “GC4419 or 10 μM GC4401” for “GC4419”, “24 hours. After 24 hours, the” for “24 hours and ascorbate (Asc) for one hour, followed immediately by clonogenic assay. The”\nFIG. 11 is a graph showing the surviving fraction of H1299 cells treated with ascorbate and combinations including ascorbate and/or auranofin. […] The cells were then trypsinized, counted, replated at varying lower densities and incubated. Plates were stained and counted for clonogenic survival assays.\n(§2) The effect of ascorbate was tested in a clonogenic cell survival assay to determine the effects of the compound alone and in combination with a pentaaza macrocyclic ring complex (GC4419). […] The cells were trypsinized, counted, replated at varying lower densities and incubated. Plates were stained and counted for clonogenic survival assays.\nas §2, with “with the” for “with a”, “complex (GC4419) and the pentaaza macrocyclic ring complex (GC4401).” for “complex (GC4419).”\nThe effects of ascorbate in combination with a pentaaza macrocyclic ring complex (GC4419) was tested in a clonogenic cell survival assay to determine the effects of the combination alone and when paired with the thioredoxin reductase inhibitor auranofin. […] The cells were then trypsinized, counted, replated at varying lower densities and incubated. […]"}, "[2]": {"system": "oral mucositis in head-and-neck cancer patients", "conditions": "head-and-neck cancer patients undergoing chemoradiation therapy; cited from earlier work"}},
  "data": [
    {"compound": "[Cl][Mn][Cl].c1cc2nc(c1)CN[C@H]1CCCC[C@@H]1NCCN[C@H]1CCCC[C@@H]1NC2", "note": "[GC4419]", "values": [
      {"measurement": "cell killing (clonogenic survival)", "setting": "[1]; 1 μM auranofin 24 h + 10 μM GC4419 24 h + 10 pmol/cell ascorbate 1 h, compared to control, monotherapies and pairwise combinations, FIG. 11", "result": "also resulted in significant enhancements in cell killing"},
      {"measurement": "cell killing (clonogenic survival)", "setting": "[1]; 10 μM GC4419 24 h + 10 pmol/cell ascorbate 1 h, compared to control and monotherapies, FIG. 11", "result": "significant enhancements in cell killing"},
      {"measurement": "cell killing (clonogenic survival)", "setting": "[1]; ascorbate 1 h in combination with 5 μM or 20 μM GC4419 24 h, compared to ascorbate or GC4419 monotherapies, FIG. 1", "result": "significant enhancements in cell killing"},
      {"measurement": "cell killing (clonogenic survival)", "setting": "[1]; ascorbate 1 h in combination with 10 μM complex 24 h, compared to control, FIG. 10", "result": "significant enhancements in cell killing"},
      {"measurement": "oral mucositis", "setting": "[2]", "result": "reduce oral mucositis"}
    ]}
  ]
}
